Entries after “also recorded” stand apart in the source; their conditions may differ. Like-named read-outs stand apart in the source and are kept apart here.
Legend:
[1] = system: MPTP-treated C57BL/6 mice; experiment: Rotarod test in MPTP-treated mice; assay type: in vivo, mouse; conditions: MPTP 25 mg/kg i.p. day 1–5; treatment day 1–13; vs MPTP vehicle control
Protocol: MPTP was injected to male C57BL/6 mice for 5 consecutive days (Figure 4A) to destroy DA neurons, and then the mice were treated with Pegasus alone or Pegasus + Benserazide compared to L-dopa alone or L-Dopa + Benserazide.
From day 1 to day 5, MPTP was administered to all the groups except Naive at a dose of 25 mg/kg, i.p., QD. Treatment with Pegasus alone (50 mg/kg, i.p., BID), a combination of Pegasus 50 mg/kg, BID + Benserazide 10 mg/kg, QD, or a combination of L-Dopa 10 mg/kg, QD + Benserazide 10 mg/kg, QD or standalone L-Dopa 10 mg/kg, QD, started on day 1 and continued until day 13. On day 13, after the first dose of Pegasus, 4 animals/time point from each group were sacrificed at 0.5, 1, 3, 6, and 12 h, and the blood and brains were collected.
The mice were placed on an accelerating Rotarod (Columbus Instruments, Columbus, OH, USA) equipped with individual timers for each mouse. […] The mice were trained for 3 consecutive days before the final measurement.

[2] = In vivo metabolism, metabolite profiling in rat brain and plasma (LC-MS/MS)
Protocol: In vivo metabolism: We performed a metabolism study (Figure 2) in male Sprague Dawley rats (6–8 weeks old) after a single i.p. injection of 50 mg/kg Pegasus. Plasma and brain samples were serially collected and assessed for the presence of possible phase-I and phase-II metabolites. […] The relative abundance of Pegasus and its metabolites in the brain and plasma was determined at the ionization parameters of the parent.
Metabolite profiling was performed in rat brain and plasma samples to detect phase-I and phase-II metabolites in male Sprague Dawley rats (6–8 weeks old, n = 6) injected (i.p.) with 50 mg/kg Pegasus. The formulation vehicle of Pegasus was 5% DMSO + 35% polyethylene glycol (PEG) 400 + 60% normal saline, and this formulation was used to measure the plasma and brain concentrations of Pegasus and all other metabolites. All samples obtained after Pegasus dosing in rats by the i.p. route of administration were used for metabolite profiling and compared to normal saline. Blood (n = 16 samples) was collected via retro-orbital plexus puncture 0.25, 1, 4, 6, 8, and 24 h pre-dose, and brain sampling was 1, 4, and 24 h post-dose (n = 6 per group). The brain samples were cleaned and perfused, then washed with PBS. The brains (approximately 1.5 g) were transferred to a 50 mL centrifuge tube and 36 mL of ice-cold PBS was added. The mixture was homogenized for about 1–2 min to obtain a uniform suspension. The precipitate was allowed to settle for 30 min at 4 °C, and 15 mL of the middle layer was collected. The plasma and brain samples were processed by the protein precipitation method. In total, 175 μL of acetonitrile was added to 25 μL of plasma samples. The samples were mixed, followed by centrifugation at 4000 rpm for 20 min. The supernatant from the samples was subjected to LC-MS/MS analysis.
The samples were analyzed by liquid chromatography tandem mass spectrometry (HPLC: LC series, Shimadzu, Chiyoda-ku, Tokyo, Japan; mass spectrometer: API4000 Triple Quad mass spectrometer, Applied Biosystems, Carlsbad, CA, USA). The samples (n = 6) were processed using protein precipitation and 1 mM stock solution, prepared in DMSO, spiked into acetonitrile to a final concentration of 4 µM, and processed using liquid chromatography tandem mass spectrometry, employing a linear gradient method using MH+/MH−(Q1) and product ion (MS/MS) scans. The evaluation of the Pegasus metabolites included demethylation, de-hydroxylation, amide cleavage, oxidation, de-hydrogenation, glucuronidation, sulfation, glutathione conjugation, and several other possibilities. The relative abundance of Pegasus and its metabolites in the brain and plasma was determined at the ionization parameters of the parent.

[3] = Pharmacokinetics after single i.p. injection, serum and brain (UHPLC-MS/MS); assay type: in vivo, mouse; conditions: for Kp: intraperitoneal; for half-life / AUC(0-inf): ip
TgA53T mice [4] = experiment: Rotarod test in TgA53T mice; assay type: in vivo, mouse
[5] = system: DA and its metabolite HVA; experiment: DA and HVA ELISA on serum and brain extracts of TgA53T mice; assay type: in vivo, mouse; conditions: 50 mg/kg, 12–13-month-old TgA53T mice, vs DMSO
caspase-3 activity = experiment: Tissue toxicity via caspase-3 activity assay; assay type: in vivo; conditions: liver, brain, kidney, lung, spleen, heart, serum, small intestine; young TgA53T mice; vs naïve, DMSO and D5
Protocol: We further verified cell death via caspase-3 activity assays of the liver, brain, kidney, lung, spleen, heart, serum, and small intestine in young TgA53T mice (6–7 months old).
Tissue toxicity was assessed in young (6–7-month-old) and old (12–13-month-old) A53T mice. The mice received daily i.p. escalating doses of Pegasus or control D5 (tetracycline derivative with no DA) vs. DMSO of 10, 25, 50, and 100 mg/kg for 4 days with each dose up to 16 days, and tissues were analyzed via caspase-3 activity. The caspase-3 activity assay (EnzChek® Invitrogen, Waltham, MA, USA) was conducted according to manufacturer’s protocols as we previously described.

TgA53T mice [6] = experiment: Elevated plus maze test in TgA53T mice; assay type: in vivo, mouse; conditions: 50 mg/kg i.p., vs DMSO
[7] = system: tyrosine hydroxylase (TH+)-positive neurons; experiment: Tyrosine hydroxylase immunohistochemistry (DAB staining); assay type: in vivo, mouse; conditions: vs DMSO
Protocol: To further examine whether Pegasus has any effects on DA-producing neurons, we performed immunohistochemistry to visualize tyrosine hydroxylase (TH+)-positive neurons in both the SN and striatum in Pegasus-treated versus untreated mice. TH is a rate-limiting enzyme in the biosynthesis of DA in the brain. We used DAB staining to highlight the TH+ neurons.
Animals were deeply anesthetized with a mixture of Xylazine and Ketamine (8:80 mg/kg), washed with normal saline for 1 min, and then perfused with 4% paraformaldehyde (PFA) for 15 min. The brains were dissected out and immediately stored in 4% PFA for 24 h at 4 °C, and then transferred to 30% sucrose at 4 °C for 48 h. The brains were cut using a cryostat microtome into 20 µm thick coronal sections and stored at −20 °C. Staining for tyrosine hydroxylase (TH) was probed with anti-tyrosine hydroxylase antibody (Cat No: AB152, Sigma-Aldrich, St. Louis, MO, USA). GFAP (glial fibrillary acidic protein) was stained with anti-GFAP monoclonal antibody (Cat No:MS1376P1, Fisher Scientific, Newington, NH, USA). […] TH^+ cells were counted in a stereology-like manner across multiple visual fields (typically 20 fields) in a single animal, and the same procedure was repeated on several animals to obtain the best approximation of TH staining.

[8] = 50 mg/kg Pegasus i.p., Sprague Dawley rats

Q: Which “Latency to fall (Rotarod)” value [1] does the source give for C[C@H]1c2ccc(NC(=O)CCC(=O)NCCc3ccc(O)c(O)c3)c(O)c2C(=O)C2=C(O)[C@]3(O)C(=O)C(C(N)=O)=C(O)CC3[C@@H](O)C21 (stereo partly shown) [Pegasus] here?
A: significantly increased latency to fall

Q: And the “Observed in Rat Brain” value [2, 8]?
A: not detected

Q: What about the “Observed in Rat Plasma” value [2, 8] of the same compound?
A: very small

Q: What about the Kp ([2]; male, Sprague Dawley, intraperitoneal, 50 mg/kg, relative abundance brain vs plasma, rat) of the same compound?
A: 0

Q: And the Kp ([3]; C57BL/6 (mouse), Sprague Dawley (rat), mouse and rat brain, read-out: Share of Pegasus detected in the brain)?
A: < 0.01

Q: And the half-life ([3]; both sexes, C57BL/6, mouse, brain, 50 mg/kg, 50 mg/kg ip, read-out: Brain T1/2 (elimination) (converted))?
A: 3.77 h

Q: And the half-life ([3]; both sexes, C57BL/6, mouse, brain, 100 mg/kg, 100 mg/kg ip, read-out: Brain T1/2 (elimination) (converted))?
A: 1.82 h

Q: And the AUC(0-inf) ([3]; both sexes, C57BL/6, mouse, brain, 100 mg/kg, across 50 and 100 mg/kg i.p., read-out: AUC0-inf in the brain)?
A: 86.6 to 223 ng·h/mL

Q: And the half-life ([3]; both sexes, C57BL/6, mouse, brain, 100 mg/kg, across 50 and 100 mg/kg i.p., read-out: Elimination half time T1/2 in the brain)?
A: 1.82 to 3.77 h

Q: And the Kp ([3]; both sexes, C57BL/6, mouse, brain/serum, 50 mg/kg ip, read-out: Ratio of Brain/Serum (%))?
A: 0.007

Q: And the Kp ([3]; both sexes, C57BL/6, mouse, brain/serum, 100 mg/kg ip, read-out: Ratio of Brain/Serum (%))?
A: 0.006

Q: And the Kp ([3]; both sexes, C57BL/6, mouse, brain/serum, across 50 and 100 mg/kg i.p., read-out: Percentage ratio of brain/serum)?
A: 0.006 to 0.007

Q: And the Tmax ([3]; both sexes, C57BL/6, mouse, brain, 50 mg/kg ip, read-out: Brain Tmax)?
A: 2 h

Q: What about the Tmax ([3]; both sexes, C57BL/6, mouse, brain, 100 mg/kg ip, read-out: Brain Tmax) of the same compound?
A: 1.5 h

Q: And the AUC(0-inf) ([3]; both sexes, C57BL/6, mouse, serum, 50 mg/kg, 50 mg/kg ip, read-out: Serum AUC (0-inf))?
A: 17200 ng·h/mL

Q: And the half-life ([3]; both sexes, C57BL/6, mouse, serum, 50 mg/kg, 50 mg/kg ip, read-out: Serum T1/2 (elimination) (converted))?
A: 4.11 h

Q: What about the AUC(0-inf) ([3]; both sexes, C57BL/6, mouse, serum, 100 mg/kg, 100 mg/kg ip, read-out: Serum AUC (0-inf)) of the same compound?
A: 49100 ng·h/mL

Q: What about the half-life ([3]; both sexes, C57BL/6, mouse, serum, 100 mg/kg, 100 mg/kg ip, read-out: Serum T1/2 (elimination) (converted)) of the same compound?
A: 4.74 h

Q: And the AUC(0-inf) ([3]; both sexes, C57BL/6, mouse, serum, 100 mg/kg, across 50 and 100 mg/kg i.p., read-out: AUC0-inf in the serum)?
A: 17200 to 49100 ng·h/mL

Q: And the half-life ([3]; both sexes, C57BL/6, mouse, serum, 100 mg/kg, across 50 and 100 mg/kg i.p., read-out: Elimination half time T1/2 in the serum)?
A: 4.11 to 4.74 h

Q: What about the Cmax ([3]; both sexes, C57BL/6, mouse, serum, 50 mg/kg ip, read-out: Serum Cmax) of the same compound?
A: 7.97 µM

Q: And the Cmax ([3]; both sexes, C57BL/6, mouse, serum, 50 mg/kg ip, read-out: Serum Cmax (ng/ml))?
A: 5190 ng/mL

Q: And the Tmax ([3]; both sexes, C57BL/6, mouse, serum, 50 mg/kg ip, read-out: Serum Tmax)?
A: 2 h

Q: And the Cmax ([3]; both sexes, C57BL/6, mouse, serum, 100 mg/kg ip, read-out: Serum Cmax)?
A: 32.7 µM

Q: What about the Cmax ([3]; both sexes, C57BL/6, mouse, serum, 100 mg/kg ip, read-out: Serum Cmax (ng/ml)) of the same compound?
A: 21300 ng/mL

Q: And the Tmax ([3]; both sexes, C57BL/6, mouse, serum, 100 mg/kg ip, read-out: Serum Tmax)?
A: 2.5 h

Q: What about the “Duration of improved Rotarod motor performance” value (TgA53T mice [4]; 50 mg/kg for 3 weeks, TgA53T mice) of the same compound?
A: up to 6.5 h

Q: What about the Rotarod motor performance (TgA53T mice [4]; 1–2 h post-injection, 50 mg/kg i.p. daily, 12–13 months old TgA53T mice, vs DMSO) of the same compound?
A: significantly improves motor performance

Q: What about the Rotarod motor behavior (TgA53T mice [4]; 2–3 h, 3–4 h and up to 5–6.5 h post-injection, 50 mg/kg i.p. daily, vs DMSO) of the same compound?
A: continues to improve motor behavior

Q: And the “Concentration of DA in the brain” value [5]?
A: significantly increases

Q: What about the “Concentration of DA in the serum” value [5] of the same compound?
A: significantly increases

Q: What about the “Concentration of HVA in the brain” value [5] of the same compound?
A: significantly increases

Q: And the “Concentration of HVA in the serum” value [5]?
A: though not HVA in the serum

Q: What about the “Caspase-3 activity in tissues” value (caspase-3 activity) of the same compound?
A: no apparent toxicity in organs; also recorded: no significant changes in caspase-3 activity

Q: And the “Elevated plus maze total distance traveled” value (TgA53T mice [6])?
A: significantly decreased

Q: What about the “Elevated plus maze total number of entries to arms” value (TgA53T mice [6]) of the same compound?
A: significantly decreased

Q: What about the “Percentage of entries to open arms” value (TgA53T mice [6]) of the same compound?
A: increased

Q: And the “Percentage of time spent in open arms” value (TgA53T mice [6])?
A: increased

Q: What about the “Cell count of TH+ neurons in the SN” value ([7]; young (6–7-month-old) and old (12–13-month-old) TgA53T mice) of the same compound?
A: dramatically increases the cell count

Q: What about the “DA nerve terminals (TH+) in the striatum” value ([7]; young and old TgA53T mice) of the same compound?
A: dramatically increases

Reference: article PMC12072186, “A Novel Small Molecule Enhances Stable Dopamine Delivery to the Brain in Models of Parkinson’s Disease” (International Journal of Molecular Sciences, 2025)
